Results published in publication PMC10120551, “Novel Glu-based pyrazolo[3,4-d]pyrimidine analogues: design, synthesis and biological evaluation as DHFR and TS dual inhibitors” (Journal of Enzyme Inhibition and Medicinal Chemistry, 2023).

Columns and labels:
[1] = test system: SR; details: Leukaemia, five-dose 0.01–100 µM
[2] = test system: SK-OV-3; assay: cells; details: Homo sapiens
[3] = test system: NCI-H226; assay: cells; details: Homo sapiens
[4] = test system: SF-268; assay: cells; details: Homo sapiens
[5] = test system: MCF-7 cells; assay: Apoptosis analysis (annexin-V/PI, flow cytometry); assay type: cell-based, human; details: MCF-7, 10 µM, 24 h; DMSO control 0.29%
Experimental: Figure 5. Flow cytometric analyses: cell cycle distribution analysis using PI staining method in which MCF-7 cells were treated by 6i (10 µM) and DMSO (negative control; NC) for 48 h; (A) 6i, (B) DMSO, (C) cells percentage in different phases (G0-G1, S, G2/M); apoptotic induction using annexin-V-FITC/PI staining method in which cancer cells were treated by 6i (10 µM) and DMSO (negative control; NC) for 24 h; (D) 6i, (E) DMSO, (F) histogram for induction of apoptosis.
Again, MCF-7 cells were treated with 6i (10 µM) to assess its effect on cell apoptosis. As shown in Figure 5(D,E), the fraction of cells in early apoptosis were 26.27% and 0.43%, while in late apoptosis, they were 8.90% and 0.29% for compound 6i and DMSO control, respectively. The obtained results hinted that compound 6i could induce apoptotic pathways. However, the ratio of apoptosis inferred that the anti-proliferative effect of compound 6i was largely dependent on apoptosis.
The MCF-7 cells (10^6 cells/ml) were treated with either 10 µM of 6i or DMSO (NC) for 24 h. After that, the cells were trypsinised, collected, washed, and stained with PE-Annexin-V (BioVision, K101-25) in the presence of PI[67]. The induction of apoptosis was analysed by flow cytometry using BD FACS Calibur[67].

[6] = test system: MALME-3M; assay: cells; details: Homo sapiens
[7] = test system: RPMI-8226; assay: cells; details: Homo sapiens
[8] = test system: SF-295; details: SF-295, CNS cancer; five-dose 0.01–100 µM
[9] = test system: Melanoma subpanel; assay: NCI five-dose screen, subpanel MG-MID; assay type: cell-based, human
Experimental: (§1) (Figures S53–S56 in Supporting Information). This assay evaluates GI50, TGI, and LC50 parameters, as cited in Table 1. Their values correspondingly represent the GI level, cytostatic impact, and cytotoxicity parameter. Furthermore, based on the GI50 values, the mean graph midpoints (MG-MID) for both full NCI 59 cell panel and subpanel cancer cell lines were evaluated, affording a median potency parameter for the examined compound 6i, as depicted in Table 2.
(§2) Moreover, the selectivity index (SI) of the most efficient analogue 6i was calculated from the division of full-panel MG-MID by subpanel MG-MID. A value greater than 6 implies high selectivity, whereas a ratio from 3 to 6 denotes moderate selectivity. Otherwise, the compound is referred to as non-selective.[24] […] Therefore, the outstanding anti-cancer profile of compound 6i against the herein examined NCI-59 cell panels inspired us to explore its mechanism of action further.
(§3) The designed analogues were submitted to NCI-Chemotherapeutic Agents Repository (MD, USA) for screening on a panel of 59 cancer cell lines. All compounds were initially examined at 10 µM concentration (Single-Dose Screen), and then the most efficient analogue 6i was screened further at 0.01–100 µM (Five-Dose Screen). The screening procedures were performed according to NCI-Drug Evaluation Branch protocol using SRB protein assay, as described previously[21]^,[66]. The experimental procedures were detailed in the Supporting Information.

[10] = test system: Ovarian cancer subpanel; assay: NCI five-dose screen, subpanel MG-MID; assay type: cell-based, human
Experimental: as §1, §2, §3

[11] = test system: Breast cancer subpanel; assay: NCI five-dose screen, subpanel MG-MID; assay type: cell-based, human
Experimental: as §1, §2, §3

[12] = test system: Prostate cancer subpanel; assay: NCI five-dose screen, subpanel MG-MID; assay type: cell-based, human
Experimental: as §1, §2, §3

[13] = test system: Non-small cell lung cancer subpanel; assay: NCI five-dose screen, subpanel MG-MID; assay type: cell-based, human
Experimental: as §1, §2, §3

[14] = test system: Leukaemia subpanel; assay: NCI five-dose screen, subpanel MG-MID; assay type: cell-based, human
Experimental: as §1, §2, §3

[15] = test system: CNS cancer subpanel; assay: NCI five-dose screen, subpanel MG-MID; assay type: cell-based, human
Experimental: as §1, §2, §3

[16] = test system: Colon cancer subpanel; assay: NCI five-dose screen, subpanel MG-MID; assay type: cell-based, human
Experimental: as §1, §2, §3

[17] = test system: Renal cancer subpanel; assay: NCI five-dose screen, subpanel MG-MID; assay type: cell-based, human
Experimental: as §1, §2, §3

[18] = test system: IGROV1; assay: cells; details: Homo sapiens
[19] = test system: HOP-62; assay: cells; details: Homo sapiens
[20] = test system: SF-268; details: SF-268, CNS cancer; five-dose 0.01–100 µM

In the case of `CCOC(=O)CC[C@H](NC(=O)c1ccc(NC(=O)Cn2cnc3c(c(C)nn3-c3ccc(Br)cc3)c2=O)cc1)C(=O)OCC` [Compound 6i], the TGI [1] was >100 µM, the GI50 ([2]; SK-OV-3) was 21.8 µM and the CC50 ([2]; SK-OV-3, read-out: LC50) was > 100 µM. The GI50 [3] was 4.54 µM, the GI50 ([4]; SF-268) was 7.01 µM and the CC50 ([4]; SF-268, read-out: LC50) was > 100 µM. The “fraction of cells in late apoptosis” value [5] was 8.90%, the GI50 [6] was 15 µM and the CC50 ([6]; read-out: LC50) was 59.4 µM. The GI50 ([7]; RPMI-8226) was 22.7 µM, the CC50 ([7]; RPMI-8226, read-out: LC50) was > 100 µM and the TGI [8] was 31.9 µM. The MG-MID ([9]; Melanoma subpanel, based on GI50) was 16.8 µM, the Selectivity index ([9]; Melanoma, full-panel MG-MID / subpanel MG-MID) was 1.21 and the MG-MID ([10]; Ovarian cancer subpanel, based on GI50) was 16.52 µM. The Selectivity index ([10]; Ovarian cancer, full-panel MG-MID / subpanel MG-MID) was 1.23, the MG-MID ([11]; Breast cancer subpanel, based on GI50) was 15.29 µM and the Selectivity index ([11]; Breast cancer, full-panel MG-MID / subpanel MG-MID) was 1.33. The MG-MID ([12]; Prostate cancer subpanel, based on GI50) was 6.63 µM, the Selectivity index ([12]; Prostate cancer, full-panel MG-MID / subpanel MG-MID) was 3.08 and the MG-MID ([13]; Non-small cell lung cancer subpanel, based on GI50) was 10.62 µM. The Selectivity index ([13]; Non-small cell lung cancer, full-panel MG-MID / subpanel MG-MID) was 1.92, the MG-MID ([14]; Leukaemia subpanel, based on GI50) was 68.03 µM and the Selectivity index ([14]; Leukaemia, full-panel MG-MID / subpanel MG-MID) was 0.30. It also gave an MG-MID ([15]; CNS cancer subpanel, based on GI50) of 12.70 µM, a Selectivity index ([15]; CNS cancer, full-panel MG-MID / subpanel MG-MID) of 1.61 and an MG-MID ([16]; Colon cancer subpanel, based on GI50) of 18.34 µM. For the same molecule, the Selectivity index ([16]; Colon cancer, full-panel MG-MID / subpanel MG-MID) was 1.11, the MG-MID ([17]; Renal cancer subpanel, based on GI50) was 19.19 µM and the Selectivity index ([17]; Renal cancer, full-panel MG-MID / subpanel MG-MID) was 1.06. The GI50 ([18]; IGROV-1) was 23.9 µM, the CC50 ([18]; IGROV-1, read-out: LC50) was > 100 µM and the GI50 ([19]; HOP-62) was 5.11 µM. For the same molecule, the CC50 ([19]; HOP-62, read-out: LC50) was 57.5 µM and the TGI [20] was 32.8 µM.
